Test results taken from ChEMBL document CHEMBL5579877, “Design and Evaluation of 3-Phenyloxetane Derivative Agonists of the Glucagon-Like Peptide-1 Receptor” (J Med Chem, 2024).

test system: not listed separately; experiment: Metabolic stability in human liver microsomes assessed as half life at […] incubated upto 45 mins in presence of NADPH by LC-MS/MS analysis; format: ADME, Microsome

| half-life [h] | SMILES |
| --- | --- |
| 0.717 | O=C(O)c1ccc2nc(CN3CCC(c4cccc(OCc5ccc(C6COC6)cn5)n4)CC3)n(C[C@@H]3CCO3)c2c1 |
| 2.56 | COc1cc(C2COC2)ccc1COc1cccc(C2CCN(Cc3nc4ccc(C(=O)O)cc4n3C[C@@H]3CCO3)CC2)n1 |
| 2.06 | O=C(O)c1ccc2nc(CN3CCC(c4cccc(OCc5ccc(C6COC6)cc5Cl)n4)CC3)n(C[C@@H]3CCO3)c2c1 |

target: Glucagon-like peptide 1 receptor (Homo sapiens, UniProt P43220); experiment: Agonist activity at human GLP-1R expressed in HEK293 cells assessed as accumulation of cAMP preincubated for 30 mins followed by d2-labeled cAMP addition and anti-cAMP cryptate addition measured after 60 mins by HTRF assay; format: functional, cell-based
Sequence (P43220 whole entry): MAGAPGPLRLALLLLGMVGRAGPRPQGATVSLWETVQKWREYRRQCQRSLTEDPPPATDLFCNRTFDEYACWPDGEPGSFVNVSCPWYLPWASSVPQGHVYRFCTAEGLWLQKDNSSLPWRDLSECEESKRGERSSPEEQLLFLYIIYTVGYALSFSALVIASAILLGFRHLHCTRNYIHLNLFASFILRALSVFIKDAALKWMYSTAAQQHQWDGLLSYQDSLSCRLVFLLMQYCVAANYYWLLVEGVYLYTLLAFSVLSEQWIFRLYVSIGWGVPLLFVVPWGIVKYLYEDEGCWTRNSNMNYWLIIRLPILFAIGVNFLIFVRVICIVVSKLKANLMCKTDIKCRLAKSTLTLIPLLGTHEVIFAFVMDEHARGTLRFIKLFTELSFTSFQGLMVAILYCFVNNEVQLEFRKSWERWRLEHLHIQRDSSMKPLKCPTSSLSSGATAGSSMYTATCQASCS

| EC50 [nM] | SMILES |
| --- | --- |
| > 1000 | CN1CCC(C(=O)c2ccc(COc3cccc(C4CCN(Cc5nc6ccc(C(=O)O)cc6n5C[C@@H]5CCO5)CC4)n3)c(F)c2)CC1 |
| 39 | O=C(O)c1ccc2nc(CN3CCC(c4cccc(OCc5ccc(C6COC6)cc5F)n4)CC3)n(CC3(F)CCC3)c2c1 |
| 0.08 | N#CCC1(n2c(CC3CCC(c4cccc(OCc5ccc(C6COC6)cc5F)n4)CC3)nc3ccc(C(=O)O)cc32)CC1 (configuration not stated) |
| 0.54 | CC(=O)c1ccc(COc2cccc(C3CCN(Cc4nc5ccc(C(=O)O)cc5n4C[C@@H]4CCO4)CC3)n2)c(F)c1 |
| 0.95 | CCC(=O)c1ccc(COc2cccc(C3CCN(Cc4nc5ccc(C(=O)O)cc5n4C[C@@H]4CCO4)CC3)n2)c(F)c1 |
| 3.08 | O=C(O)c1ccc2nc(CN3CCC(c4cccc(OCc5ccc(C6(O)COC6)cc5)n4)CC3)n(C[C@@H]3CCO3)c2c1 |
| 33.2 | O=C(O)c1ccc2nc(CN3CCC(c4cccc(OCC5CCN(C6COC6)CC5)n4)CC3)n(C[C@@H]3CCO3)c2c1 |
| 0.08 | O=C(O)c1ccc2nc(CN3CCC(c4cccc(OCc5ccc(C6(F)COC6)cc5)n4)CC3)n(C[C@@H]3CCO3)c2c1 |
| 2.8 | O=C(O)c1ccc2nc(CN3CCC(c4cccc(OCc5ccc(C6COC6)cc5OCC(F)(F)F)n4)CC3)n(C[C@@H]3CCO3)c2c1 |
